Converted amounts (≈) assume the structure as drawn. Where a name gives a salt, the structure may show the parent alone.
Legend:
Assay type in all cases: cell-based
[1] = tested on: Bacteroides fragilis sp. fragilis 62; assay: Agar dilution susceptibility of anaerobic bacteria (Chart 1); details: agar dilution, 37° C., Bacteroides fragilis sp. fragilis 62; for MIC: Bacteroides fragilis, 24 h, read-out: 24 Hr. MIC
[2] = tested on: Fusobacterium symbiosum 1470; assay: as above; details: agar dilution, 37° C., Fusobacterium symbiosum 1470; for MIC: Fusobacterium, 1470, 24 h, read-out: 24 Hr. MIC
[3] = tested on: Bacteroides melaninogenicus 1856/28; assay: as above; details: agar dilution, 37° C., Bacteroides melaninogenicus 1856/28; for MIC: Prevotella intermedia, 1856/28, 24 h, read-out: 24 Hr. MIC
[4] = tested on: Bacteroides fragilis sp. fragilis 106; assay: as above; details: agar dilution, 37° C., Bacteroides fragilis sp. fragilis 106; for MIC: Bacteroides fragilis, 24 h, read-out: 24 Hr. MIC
[5] = tested on: Bacteroides fragilis sp. fragilis 110; assay: as above; details: agar dilution, 37° C., Bacteroides fragilis sp. fragilis 110; for MIC: Bacteroides fragilis, 24 h, read-out: 24 Hr. MIC
Peptococcus prevoti 1281 = assay: as above; details: for 24 Hr. MIC: agar dilution, 37° C.; for MIC: 24 h, read-out: 24 Hr. MIC, agar dilution, 37° C.
[6] = tested on: Peptostreptococcus anaerobius 1428; assay: as above; details: agar dilution, 37° C., Peptostreptococcus anaerobius 1428; for MIC: Peptostreptococcus anaerobius, 1428, 24 h, read-out: 24 Hr. MIC
[7] = tested on: Bacteroides fragilis sp. fragilis 1877; assay: as above; details: agar dilution, 37° C., Bacteroides fragilis sp. fragilis 1877; for MIC: Bacteroides fragilis, 24 h, read-out: 24 Hr. MIC
[8] = tested on: Eubacterium aerofaciens 1235; assay: as above; details: agar dilution, 37° C., Eubacterium aerofaciens 1235; for MIC: Collinsella aerofaciens, 1235, 24 h, read-out: 24 Hr. MIC
[9] = tested on: Bacteroides fragilis sp. fragilis 113; assay: as above; details: agar dilution, 37° C., Bacteroides fragilis sp. fragilis 113; for MIC: Bacteroides fragilis, 24 h, read-out: 24 Hr. MIC
[10] = tested on: Bacteroides fragilis sp. thetaiotaomicron 1900A; assay: as above; details: agar dilution, 37° C., Bacteroides fragilis sp. thetaiotaomicron 1900A; for MIC: Bacteroides fragilis, 24 h, read-out: 24 Hr. MIC
[11] = tested on: Clostridium perfringens 81; assay: microbe, parasite or virus in culture; details: for 24 Hr. MIC: agar dilution, 37° C.; for MIC: Clostridium perfringens, 81, 24 h, read-out: 24 Hr. MIC, agar dilution, 37° C.
[12] = tested on: Bacteroides fragilis sp. fragilis 112; assay: Agar dilution susceptibility of anaerobic bacteria (Chart 1); details: agar dilution, 37° C., Bacteroides fragilis sp. fragilis 112; for MIC: Bacteroides fragilis, 24 h, read-out: 24 Hr. MIC
[13] = tested on: Fusobacterium necrophorum 6054A; assay: as above; details: agar dilution, 37° C., Fusobacterium necrophorum 6054A; for MIC: Fusobacterium necrophorum, 6054A, 24 h, read-out: 24 Hr. MIC
[14] = tested on: Peptococcus asaccharolyticus 1302; assay: as above; details: agar dilution, 37° C., Peptococcus asaccharolyticus 1302; for MIC: Peptoniphilus asaccharolyticus, 1302, 24 h, read-out: 24 Hr. MIC
[15] = tested on: Bacteroides corrodens 1874; assay: as above; details: agar dilution, 37° C., Bacteroides corrodens 1874; for MIC: Eikenella corrodens, 1874, 24 h, read-out: 24 Hr. MIC
[16] = tested on: Bacteroides fragilis sp. fragilis 107; assay: as above; details: Bacteroides fragilis, 24 h, agar dilution, 37° C.; Bacteroides fragilis sp. fragilis 107; read-out: 24 Hr. MIC
[17] = tested on: Bacteroides fragilis sp. fragilis 104; assay: as above; details: 24 h; agar dilution, 37° C.; Bacteroides fragilis sp. fragilis 104; read-out: 24 Hr. MIC
[18] = tested on: Actinomyces israelii W855; assay: as above; details: 24 h, agar dilution, 37° C., read-out: 24 Hr. MIC

Compound: CCOC(=O)C(=O)Nc1c(C#N)c(-c2ncc([N+](=O)[O-])n2C)nn1C [Example 2, N-[4-Cyano-1-methyl-3-(1-methyl-5-nitroimidazol-2-yl)pyrazol-5-yl]oxamic acid, ethyl ester, sodium salt]
- 24 Hr. MIC ([1]; sodium salt): 0.125 µg/mL
- 24 Hr. MIC ([2]; sodium salt): ≤ 0.25 µg/mL
- 24 Hr. MIC ([3]; sodium salt): 16 µg/mL
- 24 Hr. MIC ([4]; sodium salt): 0.25 µg/mL
- 24 Hr. MIC ([5]; sodium salt): 0.25 µg/mL
- 24 Hr. MIC (Peptococcus prevoti 1281; sodium salt): 0.5 µg/mL
- 24 Hr. MIC ([6]; sodium salt): ≤ 0.25 µg/mL
- 24 Hr. MIC ([7]; sodium salt): 0.5 µg/mL
- 24 Hr. MIC ([8]; sodium salt): ≤ 0.25 µg/mL
- 24 Hr. MIC ([9]; sodium salt): 0.25 µg/mL
- 24 Hr. MIC ([10]; sodium salt): 0.25 µg/mL
- 24 Hr. MIC ([11]; sodium salt): ≤ 0.25 µg/mL
- 24 Hr. MIC ([12]; sodium salt): 0.25 µg/mL
- 24 Hr. MIC ([13]; sodium salt): ≤ 0.25 µg/mL
- 24 Hr. MIC ([14]; sodium salt): ≤ 0.25 µg/mL
- 24 Hr. MIC ([15]; sodium salt): ≤ 0.25 µg/mL

Compound: Cn1nc(-c2ncc([N+](=O)[O-])n2C)c(C#N)c1NC(=O)C(=O)c1ccccc1 [Example 10, N-[4-cyano-1-methyl-3-(1-methyl-5-nitroimidazol-2-yl)pyrazol-5-yl]-2-phenylglyoxylamide]
- MIC [1]: ≤ 0.03 µg/mL
- MIC [2]: ≤ 0.03 µg/mL
- MIC [16]: ≤ 0.03 µg/mL
- MIC [3]: 32 µg/mL (≈ 84.4 µM)
- MIC [4]: ≤ 0.03 µg/mL
- MIC [5]: ≤ 0.03 µg/mL
- 24 Hr. MIC (Peptococcus prevoti 1281): 16 µg/mL
- 24 Hr. MIC [6]: 1.0 µg/mL
- MIC [17]: ≤ 0.03 µg/mL
- MIC [7]: ≤ 0.03 µg/mL
- 24 Hr. MIC [8]: 2 µg/mL
- 24 Hr. MIC [9]: ≤ 0.03 µg/mL
- MIC [18]: > 64 µg/mL
- 24 Hr. MIC [10]: ≤ 0.03 µg/mL
- MIC [11]: 1 µg/mL (≈ 2.64 µM)
- MIC [12]: ≤ 0.03 µg/mL
- MIC [13]: 0.5 µg/mL (≈ 1.32 µM)
- MIC [14]: 1 µg/mL (≈ 2.64 µM)
- 24 Hr. MIC [15]: 1.0 µg/mL

Compound: CCC[C@@H]1C[C@@H](C(=O)N[C@@H]([C@H]2O[C@H](SC)[C@H](O)[C@@H](O)[C@H]2O)[C@H](C)Cl)N(C)C1 [C, clindamycin, reference compound]
- MIC [1]: 0.25 µg/mL (≈ 0.588 µM)
- MIC [2]: ≤ 0.5 µg/mL
- MIC [16]: 0.25 µg/mL (≈ 0.588 µM)
- MIC [3]: ≤ 0.5 µg/mL
- MIC [4]: 0.125 µg/mL (≈ 0.294 µM)
- MIC [5]: 0.125 µg/mL (≈ 0.294 µM)
- MIC (Peptococcus prevoti 1281): 32 µg/mL (≈ 75.3 µM)
- MIC [6]: ≤ 0.5 µg/mL
- MIC [17]: 0.125 µg/mL (≈ 0.294 µM)
- MIC [7]: 0.25 µg/mL (≈ 0.588 µM)
- MIC [8]: 8 µg/mL (≈ 18.8 µM)
- MIC [9]: 0.125 µg/mL (≈ 0.294 µM)
- MIC [18]: ≤ 0.5 µg/mL
- MIC [10]: 4 µg/mL (≈ 9.41 µM)
- MIC [11]: 4 µg/mL (≈ 9.41 µM)
- MIC [12]: 0.25 µg/mL (≈ 0.588 µM)
- MIC [13]: ≤ 0.5 µg/mL
- MIC [14]: ≤ 0.5 µg/mL
- MIC [15]: ≤ 0.5 µg/mL

Compound: Cn1nc(-c2ncc([N+](=O)[O-])n2C)c(C#N)c1NC(=O)C(=O)NN [Example 6, 5-[4-Cyano-1-methyl-3-(1-methyl-5-nitroimidazol-2-yl)pyrazol5-yl]semioxamazide]
- MIC [1]: 0.5 µg/mL (≈ 1.5 µM)
- MIC [2]: ≤ 0.25 µg/mL
- MIC [16]: 0.5 µg/mL (≈ 1.5 µM)
- MIC [3]: 8 µg/mL (≈ 24 µM)
- MIC [4]: 0.25 µg/mL (≈ 0.75 µM)
- MIC [5]: 0.5 µg/mL (≈ 1.5 µM)
- 24 Hr. MIC (Peptococcus prevoti 1281): 0.5 µg/mL
- MIC [6]: ≤ 0.25 µg/mL
- MIC [17]: 0.25 µg/mL (≈ 0.75 µM)
- MIC [7]: 0.5 µg/mL (≈ 1.5 µM)
- 24 Hr. MIC [8]: 0.5 µg/mL
- MIC [9]: 0.25 µg/mL (≈ 0.75 µM)
- MIC [18]: > 64 µg/mL
- MIC [10]: 0.25 µg/mL (≈ 0.75 µM)
- 24 Hr. MIC [11]: 0.5 µg/mL
- MIC [12]: 0.5 µg/mL (≈ 1.5 µM)
- MIC [13]: ≤ 0.25 µg/mL
- 24 Hr. MIC [14]: ≤ 0.25 µg/mL
- 24 Hr. MIC [15]: ≤ 0.25 µg/mL

Compound: CCOC(=O)C(=O)Nc1c(C#N)c(-c2ncc([N+](=O)[O-])n2C)nn1C [Example 1, N-[4-Cyano-1-methyl-3-(1-methyl-5-nitroimidazol-2-yl)pyrazol-5-yl]oxamic acid, ethyl ester]
- 24 Hr. MIC [1]: 0.25 µg/mL
- MIC [2]: ≤ 0.25 µg/mL
- MIC [16]: 0.25 µg/mL (≈ 0.72 µM)
- 24 Hr. MIC [3]: 16 µg/mL
- MIC [4]: 0.125 µg/mL (≈ 0.36 µM)
- MIC [5]: 0.25 µg/mL (≈ 0.72 µM)
- MIC (Peptococcus prevoti 1281): ≤ 0.25 µg/mL
- MIC [6]: ≤ 0.25 µg/mL
- MIC [17]: 0.25 µg/mL (≈ 0.72 µM)
- MIC [7]: 0.25 µg/mL (≈ 0.72 µM)
- MIC [8]: 0.5 µg/mL (≈ 1.44 µM)
- MIC [9]: 0.25 µg/mL (≈ 0.72 µM)
- MIC [18]: > 64 µg/mL
- MIC [10]: 0.25 µg/mL (≈ 0.72 µM)
- MIC [11]: 0.5 µg/mL (≈ 1.44 µM)
- MIC [12]: 0.125 µg/mL (≈ 0.36 µM)
- MIC [13]: ≤ 0.25 µg/mL
- 24 Hr. MIC [14]: 1.0 µg/mL
- MIC [15]: ≤ 0.25 µg/mL

From patent US4029671A, “3-[(5-nitro-2-imidazolyl)pyrazol-5-yl]oxamic acid derivatives” (priority 1976, dated 1977)
